Reference: article PMC10564737, “Structure-based design of a phosphotyrosine-masked covalent ligand targeting the E3 ligase SOCS2” (Nature Communications, 2023)
Several values for one entry are separate records, joined by “and”; a condition that tells them apart may be missing. Equal values may be shown once.

Target: T1, SBC2 (Homo sapiens, UniProt O14508)
T1 construct: SOCS2 (amino acids 32–198); His6 (N, cleaved yes); made in house; host or cells: E. coli BL21(DE3)
Test: Covalent fluorescence polarization (FP) probe displacement assay
Assay type: binding
Source text: With the specific covalent modification of Cys111 established, we decided to fully characterize MN551 as a covalent SOCS2 inhibitor. […] (Fig. 2g, h, Supplementary Fig. 9). Due to the covalent nature of the competing inhibitor, a time-dependent reduction in the fraction of protein-bound probe is observed. […] This value illustrates reasonable specificity for a covalent inhibitor, with nonetheless scope for future optimization. In addition to characterizing the kinetic covalency parameters, we have also assessed the stability of the MN551 by monitoring its reactivity (half-life >70 min) with reduced glutathione (GSH) (Supplementary Fig. 10)[35].
To monitor the SBC2-ligand binding kinetics we designed a fluorescein-labeled small-molecule probe - compound 26. The fluorescence polarization (anisotropy) of a threefold serial dilution of 50 µM SBC2 in 10 nM of the probe in 100 mM HEPES pH 7.5, 50 mM NaCl, 0.5 mM TCEP, 2% DMSO was measured to determine the KL (Supplementary Fig. 9A) (BMG Labtech PHERAstar – firmware v1.33). Protein titration and the curves were fitted using GraphPad Prism 9, using one-site fitting models to determine the probe binding constant, KL. Samples were run in triplicate in 384 well plates, using a total volume per well of 16 μL. The bound fraction of the probe is measure using the equation:1 Fb=Af−A/Af−Ab Where,
A time-dependent reduction in probe anisotropy were measured for a 2-fold serial dilution of […] compound MN551 in 10 nM probe +300 μM SBC2. To determine the initial reversible binding affinity, the initial bound fraction of the probe at time = 0, Fbo (the y-intercept in Fb v/s Time plot, Supplementary Fig. 9B) was plotted against MN551 concentration, and the obtained IC50 is then converted to Ki (Supplementary Fig. 9C)[17]. The slope from Fb versus time graph when divided by Fbo gives rate of covalency, kobs. A plot of kobs v/s MN551 concentration using Michaelis–Menten model of GraphPad Prism 9, provides the parameters kinact (maximum potential rate of inactivation) and KI (concentration of MN551 at which kobs = kinact/2) (Supplementary Fig. 9D, E).
The observed first-order rate constant, kobs is related to KI and kinact by the equation:2 kobs=kinactI/KI+I
At [I]«[KI] the above equation is converted to3 […]
The slope from the plot of kobs against concentration of MN551 gives us the covalent efficiency parameter kinact/KI (Supp Fig. 9F)[30],[33].

[1] = MN551 260.308 nM, Cycle 12 (55 min)
[2] = MN551 260.308 nM, Cycle 19 (90 min), n=1
[3] = MN551 364.432 nM, Cycle 6 (25 min)
[4] = MN551 364.432 nM, Cycle 12 (55 min)
[5] = MN551 364.432 nM, Cycle 19 (90 min), n=1
[6] = MN551 510.204 nM, Cycle 6 (25 min)
[7] = MN551 510.204 nM, Cycle 12 (55 min)
[8] = MN551 510.204 nM, Cycle 19 (90 min), n=1
[9] = MN551 714.286 nM, Cycle 6 (25 min)
[10] = MN551 714.286 nM, Cycle 12 (55 min)
[11] = MN551 714.286 nM, Cycle 19 (90 min), n=1
[12] = MN551 781.25 nM, Cycle 6 (25 min)
[13] = MN551 1000 nM, Cycle 6 (25 min)
[14] = MN551 1000 nM, Cycle 12 (55 min)
[15] = MN551 1000 nM, Cycle 19 (90 min), n=1

T1 sequence (O14508 32-198): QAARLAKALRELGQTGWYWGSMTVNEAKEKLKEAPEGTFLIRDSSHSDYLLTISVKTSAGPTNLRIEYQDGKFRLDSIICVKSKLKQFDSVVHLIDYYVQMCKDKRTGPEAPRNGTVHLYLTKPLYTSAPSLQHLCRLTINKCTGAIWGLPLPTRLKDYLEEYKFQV
T1 sequence (Q15370 1-104 partner limits assumed): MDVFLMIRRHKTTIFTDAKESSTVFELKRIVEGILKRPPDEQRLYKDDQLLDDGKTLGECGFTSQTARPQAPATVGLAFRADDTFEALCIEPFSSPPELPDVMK
T1 sequence (Q15369 17-112 partner limits assumed): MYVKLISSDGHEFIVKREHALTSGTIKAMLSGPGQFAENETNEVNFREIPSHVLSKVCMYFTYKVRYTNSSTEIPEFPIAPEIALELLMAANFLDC

O=C(CCl)Nc1cccc(CNC(=O)[C@H](Cc2ccc(OP(=O)(O)O)cc2)NC(=O)Cc2ccc(F)cc2)c1 [MN551]
Fb (MN551 260.308 nM, Cycle 6 (25 min)): 0.9065 and 0.9342 and 0.9573 | Anisotropy [1]: 262.5 and 259.9 and 257.4 | Fb [1]: 0.8574 and 0.8591 and 0.8311 | Anisotropy data 485,520,520 [2]: 254.9 and 255 and 252.4 | Anisotropy normalised (0 nM MN551 = 1, free probe = 0) [2]: 0.8373 and 0.852 and 0.8299 | Anisotropy normalised (0 nM MN551 = 1, free probe = 0) (MN551 260.308 nM, Cycle 20 (95 min), n=1): 0.8182 and 0.7955 and 0.8068 | Anisotropy based on Raw Data (485) (MN551 364.432 nM, Cycle 7 (30 min)): 266.3 and 261.1 and 263 | Normalised anisotropy (0 nM MN551 = 1, free probe = 0) (MN551 364.432 nM, Cycle 13 (60 min), n=1): 0.8082 and 0.788 and 0.7925 | Normalised anisotropy (0 nM MN551 = 1, free probe = 0) (MN551 364.432 nM, Cycle 14 (65 min), n=1): 0.8132 and 0.8023 and 0.7716 | Normalised anisotropy (0 nM MN551 = 1, free probe = 0) (MN551 364.432 nM, Cycle 15 (70 min), n=1): 0.8109 and 0.8027 and 0.7817 | Fb, fraction bound (MN551 364.432 nM, Cycle 3 (10 min)): 0.8953 and 0.9033 and 0.8725 | Anisotropy data 485,520,520 [3]: 261.2 and 252.2 and 253.6 | Fb [3]: 0.8702 and 0.8783 and 0.9647 | Anisotropy [4]: 258 and 255.4 and 255.3 | Fb [4]: 0.8155 and 0.8159 and 0.8109 | Anisotropy data 485,520,520 [5]: 251.5 and 248.8 and 245.6 | Anisotropy normalised (0 nM MN551 = 1, free probe = 0) [5]: 0.8046 and 0.79 and 0.7638 | Anisotropy normalised (0 nM MN551 = 1, free probe = 0) (MN551 364.432 nM, Cycle 20 (95 min), n=1): 0.7592 and 0.7548 and 0.7585 | Anisotropy based on Raw Data (485) (MN551 390.625 nM, Cycle 7 (30 min)): 269.8 and 271.4 and 267.4 | Fb, fraction bound (MN551 390.625 nM, Cycle 2 (5 min)): 0.9917 and 0.9704 and 0.9496 | Fb, fraction bound (MN551 390.625 nM, Cycle 3 (10 min)): 0.9862 and 0.9672 and 0.9437 | Anisotropy (MN551 390.625 nM, Cycle 12 (55 min)): 270.6 and 267.1 and 265.1 | Anisotropy based on Raw Data (485) (MN551 510.204 nM, Cycle 7 (30 min)): 261.7 and 259.3 and 261 | Anisotropy based on Raw Data (485) (MN551 510.204 nM, Cycle 8 (35 min)): 261.5 and 258.9 and 258.8 | Normalised anisotropy (0 nM MN551 = 1, free probe = 0) (MN551 510.204 nM, Cycle 13 (60 min), n=1): 0.7484 and 0.7226 and 0.7442 | Normalised anisotropy (0 nM MN551 = 1, free probe = 0) (MN551 510.204 nM, Cycle 14 (65 min), n=1): 0.7755 and 0.7213 and 0.7092 | Normalised anisotropy (0 nM MN551 = 1, free probe = 0) (MN551 510.204 nM, Cycle 15 (70 min), n=1): 0.7476 and 0.7154 and 0.7087 | Fb, fraction bound (MN551 510.204 nM, Cycle 3 (10 min)): 0.8721 and 0.8651 and 0.8107 | Anisotropy data 485,520,520 [6]: 257.3 and 244.3 and 249.4 | Fb [6]: 0.8302 and 0.8538 and 0.9038 | Anisotropy [7]: 252.2 and 248.3 and 248.9 | Fb [7]: 0.7614 and 0.7478 and 0.7495 | Anisotropy data 485,520,520 [8]: 243.6 and 240.1 and 238.9 | Anisotropy normalised (0 nM MN551 = 1, free probe = 0) [8]: 0.7286 and 0.703 and 0.6987 | Anisotropy normalised (0 nM MN551 = 1, free probe = 0) (MN551 510.204 nM, Cycle 20 (95 min), n=1): 0.6867 and 0.6831 and 0.6676 | Anisotropy based on Raw Data (485) (MN551 714.286 nM, Cycle 7 (30 min)): 257.5 and 256.2 and 255.9 | Anisotropy based on Raw Data (485) (MN551 714.286 nM, Cycle 8 (35 min)): 256 and 254.7 and 255.3 | Normalised anisotropy (0 nM MN551 = 1, free probe = 0) (MN551 714.286 nM, Cycle 14 (65 min), n=1): 0.7189 and 0.6657 and 0.6727 | Normalised anisotropy (0 nM MN551 = 1, free probe = 0) (MN551 714.286 nM, Cycle 15 (70 min), n=1): 0.6832 and 0.6708 and 0.6558 | Fb, fraction bound (MN551 714.286 nM, Cycle 3 (10 min)): 0.8072 and 0.8019 and 0.7869 | Anisotropy data 485,520,520 [9]: 249.8 and 245.7 and 246.8 | Fb [9]: 0.8082 and 0.8312 and 0.8793 | Anisotropy [10]: 245.4 and 244 and 241.6 | Fb [10]: 0.698 and 0.7066 and 0.6795 | Fb (MN551 714.286 nM, Cycle 13 (60 min)): 0.6773 and 0.6691 and 0.6737 | Anisotropy data 485,520,520 [11]: 235.3 and 235.8 and 229.2 | Anisotropy normalised (0 nM MN551 = 1, free probe = 0) [11]: 0.6487 and 0.66 and 0.6045 | Anisotropy normalised (0 nM MN551 = 1, free probe = 0) (MN551 714.286 nM, Cycle 20 (95 min), n=1): 0.6238 and 0.6124 and 0.601 | Anisotropy based on Raw Data (485) (MN551 781.25 nM, Cycle 7 (30 min)): 264.8 and 264.3 and 257.5 | Fb, fraction bound (MN551 781.25 nM, Cycle 2 (5 min)): 0.8861 and 0.914 and 0.9072 | Fb, fraction bound (MN551 781.25 nM, Cycle 3 (10 min)): 0.8842 and 0.8716 and 0.861 | Anisotropy data 485,520,520 [12]: 261.7 and 267.5 and 267.1 | Fb [12]: 0.8257 and 0.8639 | Anisotropy (MN551 781.25 nM, Cycle 12 (55 min)): 254.6 and 253.4 and 251.5 | Anisotropy based on Raw Data (485) (MN551 1000 nM, Cycle 7 (30 min)): 254.7 and 249.8 and 251.7 | Anisotropy based on Raw Data (485) (MN551 1000 nM, Cycle 8 (35 min)): 251.7 and 250.9 and 246 | Normalised anisotropy (0 nM MN551 = 1, free probe = 0) (MN551 1000 nM, Cycle 14 (65 min), n=1): 0.5934 and 0.6045 and 0.5749 | Normalised anisotropy (0 nM MN551 = 1, free probe = 0) (MN551 1000 nM, Cycle 15 (70 min), n=1): 0.5741 and 0.5664 and 0.5538 | Fb, fraction bound (MN551 1000 nM, Cycle 3 (10 min)): 0.7627 and 0.7851 and 0.7345 | Anisotropy data 485,520,520 [13]: 247.9 and 241.8 and 240.6 | Fb [13]: 0.7763 and 0.812 | Anisotropy [14]: 234.4 and 236.4 and 233.2 | Fb [14]: 0.5955 and 0.6337 and 0.5988 | Fb (MN551 1000 nM, Cycle 13 (60 min)): 0.5631 and 0.5917 and 0.6014 | Anisotropy data 485,520,520 [15]: 220.4 and 223.8 and 219.7 | Anisotropy normalised (0 nM MN551 = 1, free probe = 0) [15]: 0.5053 and 0.54 and 0.5121 | Anisotropy normalised (0 nM MN551 = 1, free probe = 0) (MN551 1000 nM, Cycle 20 (95 min), n=1): 0.4971 and 0.4767 and 0.4821
